# According to patent US5610282A (The United States of America as represented by the …, priority 1995, dated 1997):
# Target: T1, D1 dopamine receptor (Rattus norvegicus, UniProt P18901)
# T1 construct: The longest open reading frame in this cDNA codes for a 487 residue protein; expressed in transfected cells; host or cells: COS-7 cells (transient, plasmid pSRalpha-D1)
# Assay type: cell-based
# Settings: agonist 1 uM, with 0.5 uM propranolol
# T1 sequence (P18901 whole entry): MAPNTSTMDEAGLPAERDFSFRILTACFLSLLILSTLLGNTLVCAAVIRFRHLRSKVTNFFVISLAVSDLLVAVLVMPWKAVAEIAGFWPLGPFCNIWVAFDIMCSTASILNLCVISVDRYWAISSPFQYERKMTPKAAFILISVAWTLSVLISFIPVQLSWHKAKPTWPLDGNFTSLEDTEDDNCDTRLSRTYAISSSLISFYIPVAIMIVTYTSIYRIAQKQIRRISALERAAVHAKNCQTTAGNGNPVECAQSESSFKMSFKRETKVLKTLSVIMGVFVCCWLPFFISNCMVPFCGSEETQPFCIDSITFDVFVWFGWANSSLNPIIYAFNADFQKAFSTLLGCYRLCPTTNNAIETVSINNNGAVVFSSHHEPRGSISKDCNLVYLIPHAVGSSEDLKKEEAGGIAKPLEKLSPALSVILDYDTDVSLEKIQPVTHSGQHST
row,SMILES,stimulation of cAMP accumulation (in words)
1,"Oc1cc2c(cc1O)C(c1ccccc1)CNCC2 (stereo not drawn) [SKF-38393 (-)isomer, SKF-38393]",lower potency
2,CNC[C@H](O)c1ccc(O)c(O)c1 [epinephrine],low potency relative to dopamine
